Assay results taken from PubChem BioAssay AID2060494 (Molecular Pharmacology Branch, DTP, NCI, 2025).
Each block holds one compound with its values, some of them ahead of it.

System: 435261-313-R-J1-PDC complex spheroid viability
Assay: Anticancer human tumor 435261-313-R-J1-PDC patient-derived colon adenocarcinoma cell line growth inhibition [GQUAD]
Conditions: for IC50: curve of first compound; for viability, T/C: stronger effect = lower value
Method in brief: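 Multi-cell-type spheroids of tumor cells with HUVEC and mesenchymal stem cells, treated with drug combinations. Concentrations descend in half-log steps from near clinical Cmax, or from 10 microM where Cmax is unknown; viability read-out.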

[1] = second compound 0.0316 µM, first compound 0.0316 µM
[2] = second compound 0.0316 µM, first compound 0.1 µM
[3] = second compound 0.0316 µM, first compound 0.316 µM
[4] = second compound 0.0316 µM, first compound 1 µM
[5] = second compound 0.0316 µM, first compound 3.16 µM
[6] = second compound 0.0316 µM, first compound 10 µM
[7] = second compound 0.1 µM, first compound 0.0316 µM
[8] = second compound 0.1 µM, first compound 0.1 µM
[9] = second compound 0.1 µM, first compound 0.316 µM
[10] = second compound 0.1 µM, first compound 1 µM
[11] = second compound 0.1 µM, first compound 3.16 µM
[12] = second compound 0.1 µM, first compound 10 µM
[13] = second compound 0.316 µM, first compound 0.0316 µM
[14] = second compound 0.316 µM, first compound 0.1 µM
[15] = second compound 0.316 µM, first compound 0.316 µM
[16] = second compound 0.316 µM, first compound 1 µM
[17] = second compound 0.316 µM, first compound 3.16 µM
[18] = second compound 0.316 µM, first compound 10 µM
[19] = second compound 1 µM, first compound 0.0316 µM
[20] = second compound 1 µM, first compound 0.1 µM
[21] = second compound 1 µM, first compound 0.316 µM
[22] = second compound 1 µM, first compound 1 µM
[23] = second compound 1 µM, first compound 3.16 µM
[24] = second compound 1 µM, first compound 10 µM
[25] = second compound 3.16 µM, first compound 0.0316 µM
[26] = second compound 3.16 µM, first compound 0.1 µM
[27] = second compound 3.16 µM, first compound 0.316 µM
[28] = second compound 3.16 µM, first compound 1 µM
[29] = second compound 3.16 µM, first compound 3.16 µM
[30] = second compound 3.16 µM, first compound 10 µM
[31] = second compound 10 µM, first compound 0.0316 µM
[32] = second compound 10 µM, first compound 0.1 µM
[33] = second compound 10 µM, first compound 0.316 µM
[34] = second compound 10 µM, first compound 1 µM
[35] = second compound 10 µM, first compound 3.16 µM
[36] = second compound 10 µM, first compound 10 µM
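Also: spheroids exposed to the agents for seven days before readout.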
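For viability, T/C in this document: percent of vehicle control viability with DMSO wells as 100%.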

- IC50 (second compound 0.0316 µM): 0.171 µM
- IC50 (second compound 0.1 µM): 0.137 µM
- IC50 (second compound 0.316 µM): < 0.0316 µM
- IC50 (second compound 1 µM): < 0.0316 µM
- IC50 (second compound 3.16 µM): < 0.0316 µM
- IC50 (second compound 10 µM): < 0.0316 µM
SMILES: COc1cccc2c1C(=O)c1c(O)c3c(c(O)c1C2=O)CC(O)(C(=O)CO)CC3OC1CC(N)C(O)C(C)O1 (stereo not given) + Cc1cnc(CNC(=O)c2c(=O)c3ccc(N4CCCN(C)CC4)nc3n3c2sc2ccccc23)cn1
- viability, T/C [1]: 66.9%
- viability, T/C [2]: 48.1%
- viability, T/C [3]: 46.4%
- viability, T/C [4]: 26%
- viability, T/C [5]: 1.47%
- viability, T/C [6]: 2.7%
- viability, T/C [7]: 64.9%
- viability, T/C [8]: 53.1%
- viability, T/C [9]: 37.9%
- viability, T/C [10]: 21.9%
- viability, T/C [11]: 1.96%
- viability, T/C [12]: 2.36%
- viability, T/C [13]: 48.4%
- viability, T/C [14]: 50.5%
- viability, T/C [15]: 44.8%
- viability, T/C [16]: 11.5%
- viability, T/C [17]: 0.48%
- viability, T/C [18]: 1.34%
- viability, T/C [19]: 28.8%
- viability, T/C [20]: 35.5%
- viability, T/C [21]: 26%
- viability, T/C [22]: 0.13%
- viability, T/C [23]: 0.11%
- viability, T/C [24]: 0.36%
- viability, T/C [25]: 15.4%
- viability, T/C [26]: 19.2%
- viability, T/C [27]: 3.74%
- viability, T/C [28]: 0.1%
- viability, T/C [29]: 0.13%
- viability, T/C [30]: 0.2%
- viability, T/C [31]: 0.13%
- viability, T/C [32]: 0.19%
- viability, T/C [33]: 0.2%
- viability, T/C [34]: 0.16%
- viability, T/C [35]: 0.19%
- viability, T/C [36]: 0.19%

SMILES: O=c1[nH]cc(F)c(=O)[nH]1 + CN(C)c1ccc(Nc2c3ccc(NC(=O)CCN4CCCC4)cc3nc3cc(NC(=O)CCN4CCCC4)ccc23)cc1
- IC50 (second compound 0.0316 µM): > 10 µM
- IC50 (second compound 0.1 µM): > 10 µM
- IC50 (second compound 0.316 µM): > 10 µM
- IC50 (second compound 1 µM): > 10 µM
- IC50 (second compound 3.16 µM): > 10 µM
- IC50 (second compound 10 µM): < 0.0316 µM
- viability, T/C [1]: 118%
- viability, T/C [2]: 102%
- viability, T/C [3]: 105%
- viability, T/C [4]: 90.8%
- viability, T/C [5]: 71.6%
- viability, T/C [6]: 99.9%
- viability, T/C [7]: 117%
- viability, T/C [8]: 114%
- viability, T/C [9]: 126%
- viability, T/C [10]: 86.8%
- viability, T/C [11]: 86.9%
- viability, T/C [12]: 78.6%
- viability, T/C [13]: 104%
- viability, T/C [14]: 103%
- viability, T/C [15]: 87.4%
- viability, T/C [16]: 97.2%
- viability, T/C [17]: 111%
- viability, T/C [18]: 85.8%
- viability, T/C [19]: 118%
- viability, T/C [20]: 91.8%
- viability, T/C [21]: 98.5%
- viability, T/C [22]: 104%
- viability, T/C [23]: 81.8%
- viability, T/C [24]: 73.5%
- viability, T/C [25]: 73.3%
- viability, T/C [26]: 78.1%
- viability, T/C [27]: 73.4%
- viability, T/C [28]: 63.3%
- viability, T/C [29]: 70.2%
- viability, T/C [30]: 60.4%
- viability, T/C [31]: 29.4%
- viability, T/C [32]: 66%
- viability, T/C [33]: 41.8%
- viability, T/C [34]: 40%
- viability, T/C [35]: 43.3%
- viability, T/C [36]: 31.4%

- IC50 (second compound 0.0316 µM): > 10 µM
- IC50 (second compound 0.1 µM): > 10 µM
- IC50 (second compound 0.316 µM): 4.26 µM
- IC50 (second compound 1 µM): < 0.0316 µM
- IC50 (second compound 3.16 µM): < 0.0316 µM
- IC50 (second compound 10 µM): < 0.0316 µM
SMILES: Nc1ccn(C2OC(CO)C(O)C2(F)F)c(=O)n1 (stereo not given) + Cc1cnc(CNC(=O)c2c(=O)c3ccc(N4CCCN(C)CC4)nc3n3c2sc2ccccc23)cn1
- viability, T/C [1]: 85.8%
- viability, T/C [2]: 63.4%
- viability, T/C [3]: 64.2%
- viability, T/C [4]: 59.8%
- viability, T/C [5]: 73.4%
- viability, T/C [6]: 59.3%
- viability, T/C [7]: 62.5%
- viability, T/C [8]: 67.5%
- viability, T/C [9]: 58.2%
- viability, T/C [10]: 79.8%
- viability, T/C [11]: 61.6%
- viability, T/C [12]: 59.9%
- viability, T/C [13]: 64.5%
- viability, T/C [14]: 59.7%
- viability, T/C [15]: 56.3%
- viability, T/C [16]: 56.7%
- viability, T/C [17]: 54.4%
- viability, T/C [18]: 43.6%
- viability, T/C [19]: 51.5%
- viability, T/C [20]: 46.9%
- viability, T/C [21]: 47.8%
- viability, T/C [22]: 52.1%
- viability, T/C [23]: 47%
- viability, T/C [24]: 28%
- viability, T/C [25]: 23.3%
- viability, T/C [26]: 26.2%
- viability, T/C [27]: 21.9%
- viability, T/C [28]: 6.98%
- viability, T/C [29]: 14%
- viability, T/C [30]: 0.27%
- viability, T/C [31]: 0.21%
- viability, T/C [32]: 0.2%
- viability, T/C [33]: 0.17%
- viability, T/C [34]: 0.31%
- viability, T/C [35]: 0.2%
- viability, T/C [36]: 0.21%

SMILES: COc1ncnc(C2CC2)c1-c1ncc2cnn(Cc3ccc(-c4nc(C(F)(F)F)cn4C(C)C)cc3)c2n1 + CN(C)c1ccc(Nc2c3ccc(NC(=O)CCN4CCCC4)cc3nc3cc(NC(=O)CCN4CCCC4)ccc23)cc1
- IC50 (second compound 0.0316 µM): > 10 µM
- IC50 (second compound 0.1 µM): > 10 µM
- IC50 (second compound 0.316 µM): > 10 µM
- IC50 (second compound 1 µM): > 10 µM
- IC50 (second compound 3.16 µM): 3.14 µM
- IC50 (second compound 10 µM): < 0.0316 µM
- viability, T/C [1]: 101%
- viability, T/C [2]: 94.3%
- viability, T/C [3]: 90%
- viability, T/C [4]: 84.2%
- viability, T/C [5]: 85.9%
- viability, T/C [6]: 75.1%
- viability, T/C [7]: 103%
- viability, T/C [8]: 89.6%
- viability, T/C [9]: 113%
- viability, T/C [10]: 94%
- viability, T/C [11]: 111%
- viability, T/C [12]: 91.8%
- viability, T/C [13]: 90.7%
- viability, T/C [14]: 94%
- viability, T/C [15]: 80.9%
- viability, T/C [16]: 64%
- viability, T/C [17]: 75.4%
- viability, T/C [18]: 80.9%
- viability, T/C [19]: 82.6%
- viability, T/C [20]: 70.8%
- viability, T/C [21]: 76.4%
- viability, T/C [22]: 69.8%
- viability, T/C [23]: 78.6%
- viability, T/C [24]: 77.6%
- viability, T/C [25]: 50.5%
- viability, T/C [26]: 74.3%
- viability, T/C [27]: 69%
- viability, T/C [28]: 41.2%
- viability, T/C [29]: 56.9%
- viability, T/C [30]: 30.2%
- viability, T/C [31]: 31.4%
- viability, T/C [32]: 33.6%
- viability, T/C [33]: 28.8%
- viability, T/C [34]: 27.9%
- viability, T/C [35]: 32.9%
- viability, T/C [36]: 10.7%

SMILES: CCCS(=O)(=O)Nc1ccc(F)c(C(=O)c2c[nH]c3ncc(-c4ccc(Cl)cc4)cc23)c1F + CN(C)c1ccc(Nc2c3ccc(NC(=O)CCN4CCCC4)cc3nc3cc(NC(=O)CCN4CCCC4)ccc23)cc1
- IC50 (second compound 0.0316 µM): 5.69 µM
- IC50 (second compound 0.1 µM): 5.64 µM
- IC50 (second compound 0.316 µM): 5.35 µM
- IC50 (second compound 1 µM): 5.62 µM
- IC50 (second compound 3.16 µM): 3.77 µM
- IC50 (second compound 10 µM): < 0.0316 µM
- viability, T/C [1]: 123%
- viability, T/C [2]: 110%
- viability, T/C [3]: 143%
- viability, T/C [4]: 123%
- viability, T/C [5]: 85.6%
- viability, T/C [6]: 15.8%
- viability, T/C [7]: 84.3%
- viability, T/C [8]: 110%
- viability, T/C [9]: 120%
- viability, T/C [10]: 92.3%
- viability, T/C [11]: 81.6%
- viability, T/C [12]: 19.6%
- viability, T/C [13]: 124%
- viability, T/C [14]: 94.6%
- viability, T/C [15]: 92.1%
- viability, T/C [16]: 128%
- viability, T/C [17]: 76.1%
- viability, T/C [18]: 19.1%
- viability, T/C [19]: 77.3%
- viability, T/C [20]: 90.7%
- viability, T/C [21]: 105%
- viability, T/C [22]: 92.5%
- viability, T/C [23]: 77.7%
- viability, T/C [24]: 22.1%
- viability, T/C [25]: 82%
- viability, T/C [26]: 53.6%
- viability, T/C [27]: 74.7%
- viability, T/C [28]: 112%
- viability, T/C [29]: 57.1%
- viability, T/C [30]: 10.5%
- viability, T/C [31]: 45.5%
- viability, T/C [32]: 54.3%
- viability, T/C [33]: 33.9%
- viability, T/C [34]: 34%
- viability, T/C [35]: 33.8%
- viability, T/C [36]: 7.35%
